Where two headings read alike, the source gives them in different places.
What was measured:
[1] = system: 60 different human tumor cell lines; conditions: five dose; for CC50: read-out: LC50
[2] = system: SF-539; assay: NCI 60 one dose screen; format: cell-based, human; conditions: one dose; CNS Cancer; SF-539
[3] = system: RPMI-8226; assay: NCI 60 five dose screen; conditions: RPMI-8226 (Leukemia), five dose
[4] = MDA-MB-231/ATCC (Breast Cancer)
[5] = NCI-H23 (Non-small Cell Lung Cancer)
[6] = NCI-H226 (Non-small Cell Lung Cancer)
[7] = NCI-H322M (Non-small Cell Lung Cancer)
[8] = NCI-H460 (Non-small Cell Lung Cancer)
[9] = NCI-H522 (Non-small Cell Lung Cancer)

In the case of `C[C@]12CCc3nc(Nc4ccc(O)cc4)sc3C1=CC[C@@H]1[C@@H]2CC[C@]2(C)C(=O)CC[C@@H]12` [IIa.35], the TGI ([1]; MCF7 (Breast Cancer)) is reported as 4.26E−6, the GI50 [1, 4] is reported as 3.22 µM and the GI50 ([1]; MDA-MB-435 (Melanoma)) is reported as 2.08 µM. For the same compound, the TGI ([1]; MDA-MB-435 (Melanoma)) was 5.32E−6, the GI50 ([1]; MDA-MB-468 (Breast Cancer)) was 2.17 µM and the TGI ([1]; MDA-MB-468 (Breast Cancer)) was 5.80E−6. The GI50 ([1]; MOLT-4 (Leukemia)) was 2.38 µM, the TGI ([1]; MOLT-4 (Leukemia)) was greater than 1.00E−4 and the GI50 [1, 5] was 3.96 µM. For the same compound, the TGI [1, 5] was greater than 1.00E−4, the GI50 [1, 6] was 2.86 µM and the TGI [1, 6] was 8.52E−6. For the same compound, the GI50 [1, 7] was 6.4 µM, the TGI [1, 7] was greater than 1.00E−4 and the GI50 [1, 8] was 3.01 µM. For the same compound, the TGI [1, 8] was 1.05E−5, the GI50 [1, 9] was 1.42 µM and the TGI [1, 9] was 2.96E−6. The GI50 ([1]; NCI/ADR-RES (Ovarian Cancer)) was 3.27 µM, the TGI ([1]; NCI/ADR-RES (Ovarian Cancer)) was greater than 1.00E−4 and the GI50 ([1]; OVCAR-3 (Ovarian Cancer)) was 1.71 µM. For the same compound, the TGI ([1]; OVCAR-3 (Ovarian Cancer)) was 3.38E−6, the GI50 ([1]; OVCAR-4 (Ovarian Cancer)) was 2.03 µM and the GI50 ([1]; OVCAR-5 (Ovarian Cancer)) was 3.91 µM. The TGI ([1]; OVCAR-5 (Ovarian Cancer)) was greater than 1.00E−4, the GI50 ([1]; OVCAR-8 (Ovarian Cancer)) was 3.22 µM and the TGI ([1]; OVCAR-8 (Ovarian Cancer)) was greater than 1.00E−4. The GI50 ([1]; PC-3 (Prostate Cancer)) was 2.49 µM, the TGI ([1]; PC-3 (Prostate Cancer)) was 8.15E−6 and the GI50 ([1]; RXF 393 (Renal Cancer)) was 1.78 µM. The TGI ([1]; RXF 393 (Renal Cancer)) was 4.14E−6, the GI50 ([1]; SF-268 (CNS Cancer)) was 3.37 µM and the TGI ([1]; SF-268 (CNS Cancer)) was 4.00E−4. It also gave a GI50 ([1]; SK-MEL-2 (Melanoma)) of 6.98 µM, a TGI ([1]; SK-MEL-2 (Melanoma)) greater than 1.00E−4 and a GI50 ([1]; SK-MEL-5 (Melanoma)) of 4.33 µM. It also gave a TGI ([1]; SK-MEL-5 (Melanoma)) of 3.19E−5, a GI50 ([1]; SK-MEL-28 (Melanoma)) of 2.08 µM and a TGI ([1]; SK-MEL-28 (Melanoma)) of 4.75E−6. The GI50 ([1]; SK-OV-3 (Ovarian Cancer)) was 12.3 µM, the TGI ([1]; SK-OV-3 (Ovarian Cancer)) was greater than 1.00E−4 and the GI50 ([1]; SN12C (Renal Cancer)) was 2.91 µM. For the same compound, the TGI ([1]; SN12C (Renal Cancer)) was greater than 1.00E−4, the GI50 ([1]; SNB-19 (CNS Cancer)) was 10.9 µM and the TGI ([1]; SNB-19 (CNS Cancer)) was greater than 1.00E−4. For the same compound, the GI50 ([1]; SNB-75 (CNS Cancer)) was 2.76 µM, the TGI ([1]; SNB-75 (CNS Cancer)) was greater than 1.00E−4 and the GI50 ([1]; SW-620 (Colon Cancer)) was 2.08 µM. It also gave a TGI ([1]; SW-620 (Colon Cancer)) of 4.73E−6, a GI50 ([1]; T-47D (Breast Cancer)) of 1.95 µM and a TGI ([1]; T-47D (Breast Cancer)) of 5.03E−6. The GI50 ([1]; TK-10 (Renal Cancer)) was 2.01 µM, the TGI ([1]; TK-10 (Renal Cancer)) was 4.40E−6 and the GI50 ([1]; U251 (CNS Cancer)) was 3.06 µM. It also gave a TGI ([1]; U251 (CNS Cancer)) of 2.19E−5, a GI50 ([1]; UACC-62 (Melanoma)) of 1.76 µM and a TGI ([1]; UACC-62 (Melanoma)) of 4.02E−6. The GI50 ([1]; UACC-257 (Melanoma)) was 1.86 µM, the TGI ([1]; UACC-257 (Melanoma)) was 4.62E−6 and the GI50 ([1]; UO-31 (Renal Cancer)) was 1.54 µM. For the same compound, the TGI ([1]; UO-31 (Renal Cancer)) was 2.90E−6, the CC50 ([1]; A498 (Renal Cancer)) was greater than 100 µM and the CC50 ([1]; A549/ATCC (Non-small Cell Lung Cancer)) was greater than 100 µM. It also gave a CC50 ([1]; ACHN (Renal Cancer)) of 36.6 µM, a CC50 ([1]; BT-549 (Breast Cancer)) greater than 100 µM and a CC50 ([1]; CCRF-CEM (Leukemia)) greater than 100 µM. The CC50 ([1]; COLO 205 (Colon Cancer)) was 7.61 µM, the CC50 ([1]; EKVX (Non-small Cell Lung Cancer)) was greater than 100 µM and the CC50 ([1]; HCC-2998 (Colon Cancer)) was greater than 100 µM. The CC50 ([1]; HCT-15 (Colon Cancer)) was greater than 100 µM, the CC50 ([1]; HL-60(TB) (Leukemia)) was greater than 100 µM and the CC50 ([1]; HOP-62 (Non-small Cell Lung Cancer)) was greater than 100 µM. The CC50 ([1]; HOP-92 (Non-small Cell Lung Cancer)) was greater than 100 µM, the CC50 ([1]; HT29 (Colon Cancer)) was greater than 100 µM and the CC50 ([1]; IGROV1 (Ovarian Cancer)) was greater than 100 µM. The CC50 ([1]; K-562 (Leukemia)) was greater than 100 µM, the CC50 ([1]; M14 (Melanoma)) was greater than 100 µM and the CC50 ([1]; MALME-3M (Melanoma)) was 8.96 µM. For the same compound, the CC50 ([1]; MCF7 (Breast Cancer)) was greater than 100 µM, the CC50 [1, 4] was greater than 100 µM and the CC50 ([1]; MDA-MB-435 (Melanoma)) was greater than 100 µM. For the same compound, the CC50 ([1]; MDA-MB-468 (Breast Cancer)) was greater than 100 µM, the CC50 ([1]; MOLT-4 (Leukemia)) was greater than 100 µM and the CC50 [1, 5] was greater than 100 µM. The CC50 [1, 6] was greater than 100 µM, the CC50 [1, 8] was greater than 100 µM and the CC50 [1, 9] was 6.18 µM. For the same compound, the CC50 ([1]; NCI/ADR-RES (Ovarian Cancer)) was greater than 100 µM, the CC50 ([1]; OVCAR-3 (Ovarian Cancer)) was 6.7 µM and the CC50 ([1]; OVCAR-4 (Ovarian Cancer)) was greater than 100 µM. For the same compound, the CC50 ([1]; OVCAR-5 (Ovarian Cancer)) was greater than 100 µM, the CC50 ([1]; OVCAR-8 (Ovarian Cancer)) was greater than 100 µM and the CC50 ([1]; PC-3 (Prostate Cancer)) was greater than 100 µM. It also gave a CC50 ([1]; SF-268 (CNS Cancer)) greater than 100 µM, a CC50 ([1]; SK-MEL-2 (Melanoma)) greater than 100 µM and a CC50 ([1]; SK-MEL-5 (Melanoma)) greater than 100 µM. The CC50 ([1]; SK-MEL-28 (Melanoma)) was greater than 100 µM, the CC50 ([1]; SK-OV-3 (Ovarian Cancer)) was greater than 100 µM and the CC50 ([1]; SN12C (Renal Cancer)) was greater than 100 µM. The CC50 ([1]; SNB-19 (CNS Cancer)) was greater than 100 µM, the CC50 ([1]; SNB-75 (CNS Cancer)) was greater than 100 µM and the CC50 ([1]; SW-620 (Colon Cancer)) was greater than 100 µM. For the same compound, the CC50 ([1]; T-47D (Breast Cancer)) was greater than 100 µM, the CC50 ([1]; TK-10 (Renal Cancer)) was 9.6 µM and the CC50 ([1]; U251 (CNS Cancer)) was greater than 100 µM. For the same compound, the CC50 ([1]; UACC-62 (Melanoma)) was 9.19 µM, the CC50 ([1]; UACC-257 (Melanoma)) was greater than 100 µM and the CC50 ([1]; UO-31 (Renal Cancer)) was 9.49 µM. For the same compound, the “Growth Percent” value [2] was −3.84%, the GI50 [3] was 2.35 µM and the TGI [3] was 7.07E−6. For the same compound, the CC50 ([3]; read-out: LC50) was greater than 100 µM.
